Test results: patent US9440962B2, “Benzisoxazoles” (Hoffmann-La Roche Inc., priority 2012, dated 2016)

Experiments:
[1] = system: human embryonic stem cell derived neural stem cells (NSCs); assay: Neural stem cell proliferation assay (neurogenesis assay, ATP levels by CellTiterGlo); format: cell-based; conditions: 96 h, compound concentration at which 150% activity of control (100%) is reached, ATP levels after 4 days incubation, dose response 8 μM to 8 nM
Description: Neural Stem Cell Proliferation Assay
Neurogenic properties of small molecules are determined based on the proliferation of human embryonic stem cell derived neural stem cells (NSCs) which were derived via a dual smad inhibition as previously described (Chambers, S. M., et al., Highly efficient neural conversion of human ES and iPS cells by dual inhibition of SMAD signaling, Nature biotechnology, 2009. 27(3): p. 275-80.)
Compounds respond is measured by the increase in cells based on ATP levels (Promega:CellTiterGlo®) after an incubation period of 4 days.
NSCs are thawed and expanded over 3 passages. On the 14th day, NSCs are seeded in Polyornithin/Laminin coated 384 well plates at a cell density of 21′000 cells/cm^2 in a media volume of 38 μl.
4 hours after cell seeding, compound solutions are added at a volume of 2 μl. Stock solutions of the compounds (water, 5% DMSO) are diluted to obtain a dose response (11 points, dilution factor is 2), ranging from 8 μM to 8 nM. Controls are run to consistently determine the neurogenic properties of the cells: • Negative (neutral) control is cell culture Media (final DMSO concentration: 0.25%). Positive controls are: • 1. cell culture Media+100 ng/ml FGF2 (final DMSO concentration: 0.1%) • 2. cell culture Media+20 ng/ml EGF (final DMSO concentration: 0.1%) • 3. cell culture Media+100 ng/ml Wnt3a (final DMSO concentration: 0.1%)
After 4 days incubation at 37° C., 5% CO2, the amount of ATP per well is quantified. The ATP concentration is proportional to the cell number. ATP is quantified by using the Promega CellTiterGlo® kit. The CellTiterGlo® reagents contain a cell lysis buffer, a thermo stable luciferase (UltraGlo™ recombinant luciferase), magnesium and luciferin. Luciferin reacts with ATP producing oxyluciferin, AMP and light. The luminescence signal is proportional to the ATP content.
The value of negative (neutral) control is determined for each assay plate by taking the average of 16 negative control wells. The neurogenic compound response is calculated for each compound as (compound/Negative Control)* 100.
The values of EC150 from the dose response curve are determined for each test compound. The EC150 is the compound concentration at which 150% activity of control (100%) is reached.

Row | melting point [°C] | Compound | EC (150% of control) [1] [µM]
1 | 149 | Fc1ccc(-c2onc3ccc(-c4ccnn4-c4ccc(F)cc4F)cc23)cc1 [Example 28, 5-[2-(2,4-Difluoro-phenyl)-2H-pyrazol-3-yl]-3-(4-fluoro-phenyl)-benzo[c]isoxazole] | 0.07
2 | 165 | Fc1cccc(-c2onc3ccc(-c4ccnn4-c4ccc(F)cc4F)cc23)c1 [Example 29, 5-[2-(2,4-Difluoro-phenyl)-2H-pyrazol-3-yl]-3-(3-fluoro-phenyl)-benzo[c]isoxazole] | 0.25
3 | 147 | Cc1ccc(-c2onc3ccc(-c4ccnn4-c4ccc(F)cc4F)cc23)cc1 [Example 30, 5-[2-(2,4-Difluoro-phenyl)-2H-pyrazol-3-yl]-3-p-tolyl-benzo[c]isoxazole] | 0.04
4 | 159 | Fc1ccc(-n2nccc2-c2ccc3noc(-c4ccc(C(F)(F)F)cc4)c3c2)c(F)c1 [Example 31, 5-[2-(2,4-Difluoro-phenyl)-2H-pyrazol-3-yl]-3-(4-trifluoromethyl-phenyl)-benzo[c]isoxazole] | 0.96
5 | 155 | Fc1ccc(-n2nccc2-c2ccc3noc(-c4ccc(Cl)cc4)c3c2)c(F)c1 [Example 32, 3-(4-Chloro-phenyl)-5-[2-(2,4-difluoro-phenyl)-2H-pyrazol-3-yl]-benzo[c]isoxazole] | 0.073
6 | 165 | COc1ccc(-c2onc3ccc(-c4ccnn4-c4ccc(F)cc4F)cc23)cc1 [Example 33, 5-[2-(2,4-Difluoro-phenyl)-2H-pyrazol-3-yl]-3-(4-methoxy-phenyl)-benzo[c]isoxazole] | 0.068
7 | 163 | c1ccc(-c2onc3ccc(-c4ccnn4-c4ccccc4)cc23)cc1 [Example 34, 3-Phenyl-5-(2-phenyl-2H-pyrazol-3-yl)-benzo[c]isoxazole] | 0.13
8 | 175 | Fc1ccc(-c2onc3ccc(-c4ccnn4-c4ccccn4)cc23)cc1 [Example 35, 3-(4-Fluoro-phenyl)-5-(2-pyridin-2-yl-2H-pyrazol-3-yl)-benzo[c]isoxazole] | 0.04
9 | 168 | COc1ccc(-c2onc3ccc(-c4ccnn4-c4ccccc4F)cc23)cc1F [Example 36, 3-(3-Fluoro-4-methoxy-phenyl)-5-[2-(2-fluoro-phenyl)-2H-pyrazol-3-yl]-benzo[c]isoxazole] | 0.16
10 | 162 | COc1ccc(-c2onc3ccc(-c4ccnn4-c4ccc(F)cc4)cc23)cc1F [Example 37, 3-(3-Fluoro-4-methoxy-phenyl)-5-[2-(4-fluoro-phenyl)-2H-pyrazol-3-yl]-benzo[c]isoxazole] | 1.1
11 | 198 | Cc1ccc(-n2nccc2-c2ccc3noc(-c4ccc(F)c(F)c4)c3c2)cc1 [Example 38, 3-(3,4-Difluoro-phenyl)-5-(2-p-tolyl-2H-pyrazol-3-yl)-benzo[c]isoxazole] | 0.48
12 | 197 | COc1ccc(-c2onc3ccc(-c4ccnn4-c4ccc(C)cc4)cc23)cc1F [Example 39, 3-(3-Fluoro-4-methoxy-phenyl)-5-(2-p-tolyl-2H-pyrazol-3-yl)-benzo[c]isoxazole] | 0.25
13 | 183 | COc1ccc(-c2onc3ccc(-c4ccnn4-c4ccc(F)cc4F)cc23)cc1F [Example 40, 5-[2-(2,4-Difluoro-phenyl)-2H-pyrazol-3-yl]-3-(3-fluoro-4-methoxy-phenyl)-benzo[c]isoxazole] | 0.23
14 | 161 | Fc1ccc(-c2onc3ccc(-c4ccnn4-c4ccccc4Cl)cc23)cc1 [Example 41, 5-[2-(2-Chloro-phenyl)-2H-pyrazol-3-yl]-3-(4-fluoro-phenyl)-benzo[c]isoxazole] | 0.22
15 | 172 | Clc1ccc(-c2onc3ccc(-c4ccnn4-c4ccccc4Cl)cc23)cc1 [Example 42, 3-(4-Chloro-phenyl)-5-[2-(2-chloro-phenyl)-2H-pyrazol-3-yl]-benzo[c]isoxazole] | 0.3
16 | 176 | Cc1ccc(-c2onc3ccc(-c4ccnn4-c4ccccc4Cl)cc23)cc1 [Example 43, 5-[2-(2-Chloro-phenyl)-2H-pyrazol-3-yl]-3-p-tolyl-benzo[c]isoxazole] | 0.15
17 | 154 | Fc1ccc(-n2nccc2-c2ccc3noc(-c4cccs4)c3c2)cc1 [Example 44, 5-[2-(4-Fluoro-phenyl)-2H-pyrazol-3-yl]-3-thiophen-2-yl-benzo[c]isoxazole] | 0.17
